Data published in ChEMBL document CHEMBL4813981, “Synthesis and in vitro antibacterial activity of new aminothiazole-oximepiperidone cephalosporins” (2021).

Assays:
Klebsiella pneumoniae [1] = assay: Antibacterial activity against ESBLs positive Carbapenem-sensitive Klebsiella pneumoniae 17-6 assessed as reduction in bacterial growth in the presence of Avibactam; type: functional
Pseudomonas aeruginosa [2] = assay: Antibacterial activity against Carbapenem- sensitive Pseudomonas aeruginosa 17-9 assessed as reduction in bacterial growth in the presence of Avibactam; type: functional
Klebsiella pneumoniae [3] = assay: Bactericidal activity against ESBLs negative Carbapenem-sensitive Klebsiella pneumoniae 17-17 assessed as reduction in bacterial growth in the presence of avibactam; type: functional
Pseudomonas aeruginosa [4] = assay: Antibacterial activity against Carbapenem- sensitive Pseudomonas aeruginosa 17-21 assessed as reduction in bacterial growth in the presence of Avibactam; type: functional
Klebsiella pneumoniae [5] = assay: Antibacterial activity against Carbapenem- resistant Klebsiella pneumoniae KR 15-13 assessed as reduction in bacterial growth in the presence of Avibactam; type: functional
Acinetobacter baumannii [6] = assay: Antibacterial activity against Multidrug resistant Acinetobacter baumannii AR 15-4 assessed as reduction in bacterial growth in the presence of Avibactam; type: functional
Klebsiella aerogenes [7] = assay: Antibacterial activity against Enterobacter aerogenes 17-2 assessed as reduction in bacterial growth in the presence of Avibactam; type: functional
Escherichia coli [8] = assay: Antibacterial activity against Escherichia coli ATCC 35218 assessed as reduction in bacterial growth in the presence of Avibactam; type: functional
Klebsiella pneumoniae [9] = assay: Bactericidal activity against ESBLs positive Carbapenem-sensitive Klebsiella pneumoniae 17-6 assessed as reduction in bacterial growth in the presence of avibactam; type: functional
Klebsiella pneumoniae [10] = assay: Bactericidal activity against Klebsiella pneumoniae ATCC BAA-1705 assessed as reduction in bacterial growth in the presence of avibactam; type: functional
Pseudomonas aeruginosa [11] = assay: Bactericidal activity against carbapenem-sensitive Pseudomonas aeruginosa 17-29 assessed as reduction in bacterial growth; type: functional
Klebsiella pneumoniae [12] = assay: Antibacterial activity against Carbapenem- resistant Klebsiella pneumoniae KR 15-5 assessed as reduction in bacterial growth
Pseudomonas aeruginosa [13] = assay: Bactericidal activity against carbapenem-sensitive Pseudomonas aeruginosa 17-26 assessed as reduction in bacterial growth; type: functional
Escherichia coli [14] = assay: Antibacterial activity against Escherichia coli 15-5 overexpressing extended spectrum beta-lactamases assessed as reduction in bacterial growth in the presence of Avibactam; type: functional
Acinetobacter baumannii [15] = assay: Antibacterial activity against Carbapenem- resistant Acinetobacter baumannii 17-11 assessed as reduction in bacterial growth in the presence of Avibactam; type: functional
Klebsiella pneumoniae [16] = assay: Antibacterial activity against ESBLs positive Carbapenem-sensitive Klebsiella pneumoniae 17-6 assessed as reduction in bacterial growth
Pseudomonas aeruginosa [17] = assay: Bactericidal activity against carbapenem-sensitive Pseudomonas aeruginosa 17-9 assessed as reduction in bacterial growth; type: functional
Acinetobacter baumannii [18] = assay: Antibacterial activity against Carbapenem- resistant Acinetobacter baumannii 17-8 assessed as reduction in bacterial growth in the presence of Avibactam; type: functional
Escherichia coli [19] = assay: Bactericidal activity against ESBLs negative Carbapenem--sensitive Escherichia coli 17-7 assessed as reduction in bacterial growth; type: functional
Pseudomonas aeruginosa [20] = assay: Antibacterial activity against Pseudomonas aeruginosa ATCC 27853 assessed as reduction in bacterial growth in the presence of Avibactam; type: functional
Acinetobacter baumannii [21] = assay: Antibacterial activity against Acinetobacter baumannii NCTC 13304 assessed as reduction in bacterial growth in the presence of Avibactam; type: functional
Klebsiella aerogenes [22] = assay: Antibacterial activity against Enterobacter aerogenes 15-7 assessed as reduction in bacterial growth in the presence of Avibactam; type: functional
Klebsiella pneumoniae [23] = assay: Antibacterial activity against Carbapenem- resistant Klebsiella pneumoniae KR 15-8 assessed as reduction in bacterial growth
Klebsiella pneumoniae [24] = assay: Antibacterial activity against Multidrug resistant Klebsiella pneumoniae KR 15-2 assessed as reduction in bacterial growth in the presence of Avibactam; type: functional
Pseudomonas aeruginosa [25] = assay: Antibacterial activity against Carbapenem- sensitive Pseudomonas aeruginosa 17-24 assessed as reduction in bacterial growth in the presence of Avibactam; type: functional
Acinetobacter baumannii [26] = assay: Antibacterial activity against Multidrug resistant Acinetobacter baumannii AR 15-3 assessed as reduction in bacterial growth; type: functional
Pseudomonas aeruginosa [27] = assay: Antibacterial activity against Carbapenem- sensitive Pseudomonas aeruginosa 17-7 assessed as reduction in bacterial growth in the presence of Avibactam; type: functional
Klebsiella pneumoniae [28] = assay: Antibacterial activity against ESBLs negative Carbapenem-sensitive Klebsiella pneumoniae 17-17 assessed as reduction in bacterial growth in the presence of Avibactam; type: functional
Acinetobacter baumannii [29] = assay: Bactericidal activity against Carbapenem- resistant Acinetobacter baumannii 17-3 assessed as reduction in bacterial growth in the presence of avibactam; type: functional
Klebsiella pneumoniae [30] = assay: Antibacterial activity against Carbapenem- resistant Klebsiella pneumoniae KR 15-5 assessed as reduction in bacterial growth in the presence of Avibactam; type: functional
Acinetobacter baumannii [31] = assay: Antibacterial activity against Multidrug resistant Acinetobacter baumannii AR 15-3 assessed as reduction in bacterial growth in the presence of Avibactam; type: functional
Klebsiella pneumoniae [32] = assay: Antibacterial activity against Multidrug resistant Klebsiella pneumoniae KR 15-3 assessed as reduction in bacterial growth in the presence of Avibactam; type: functional
Acinetobacter baumannii [33] = assay: Bactericidal activity against Acinetobacter baumannii NCTC 13304 assessed as reduction in bacterial growth in the presence of avibactam; type: functional
Klebsiella pneumoniae [34] = assay: Bactericidal activity against Carbapenem- resistant Klebsiella pneumoniae KR 15-8 assessed as reduction in bacterial growth in the presence of avibactam; type: functional
Pseudomonas aeruginosa [35] = assay: Bactericidal activity against carbapenem-sensitive Pseudomonas aeruginosa 17-10 assessed as reduction in bacterial growth in the presence of avibactam; type: functional
Escherichia coli [36] = assay: Antibacterial activity against ESBLs negative Carbapenem-sensitive Escherichia coli 17-19 assessed as reduction in bacterial growth; type: functional
Pseudomonas aeruginosa [37] = assay: Bactericidal activity against Pseudomonas aeruginosa ATCC 27853 assessed as reduction in bacterial growth; type: functional
Escherichia coli [38] = assay: Bactericidal activity against ESBLs positive Carbapenem-sensitive Escherichia coli 17-18 assessed as reduction in bacterial growth; type: functional
Pseudomonas aeruginosa [39] = assay: Antibacterial activity against Carbapenem- sensitive Pseudomonas aeruginosa 17-11 assessed as reduction in bacterial growth in the presence of Avibactam; type: functional
Escherichia coli [40] = assay: Antibacterial activity against Escherichia coli 15-5 overexpressing extended spectrum beta-lactamases assessed as reduction in bacterial growth; type: functional
Enterobacter cloacae = assay: Antibacterial activity against Enterobacter cloacae 17-2 assessed as reduction in bacterial growth
Klebsiella pneumoniae [41] = assay: Bactericidal activity against ESBLs positive Carbapenem-sensitive Klebsiella pneumoniae 17-12 assessed as reduction in bacterial growth in the presence of avibactam; type: functional
Pseudomonas aeruginosa [42] = assay: Bactericidal activity against carbapenem-sensitive Pseudomonas aeruginosa 17-9 assessed as reduction in bacterial growth in the presence of avibactam; type: functional
Escherichia coli [43] = assay: Antibacterial activity against ESBLs negative Carbapenem-sensitive Escherichia coli 17-20 assessed as reduction in bacterial growth; type: functional
Pseudomonas aeruginosa [44] = assay: Antibacterial activity against Carbapenem- sensitive Pseudomonas aeruginosa 17-9 assessed as reduction in bacterial growth; type: functional
Pseudomonas aeruginosa [45] = assay: Antibacterial activity against Carbapenem- resistant Pseudomonas aeruginosa 17-5 assessed as reduction in bacterial growth
Pseudomonas aeruginosa [46] = assay: Antibacterial activity against Carbapenem- sensitive Pseudomonas aeruginosa 17-22 assessed as reduction in bacterial growth in the presence of Avibactam; type: functional

Nc1nc(/C(=N/OCc2cc(=O)c(O)cn2O)C(=O)N[C@@H]2C(=O)N3C(C(=O)O)=CCS[C@H]23)cs1
32 mg/L: MBC (Escherichia coli [38])
4 mg/L: MBC (Escherichia coli [19]) | MIC (Pseudomonas aeruginosa [25]) | MBC (Pseudomonas aeruginosa [35]) | MBC (Pseudomonas aeruginosa [42]) | MIC (Pseudomonas aeruginosa [44])
2 mg/L: MIC (Pseudomonas aeruginosa [2]) | MIC (Pseudomonas aeruginosa [4]) | MIC (Klebsiella pneumoniae [5]) | MBC (Klebsiella pneumoniae [10]) | MIC (Klebsiella aerogenes [22]) | MIC (Klebsiella pneumoniae [30]) | MIC (Pseudomonas aeruginosa [39])
> 16 mg/L: MBC (Pseudomonas aeruginosa [13])
0.5 mg/L: MBC (Klebsiella pneumoniae [9]) | MIC (Escherichia coli [14]) | MIC (Klebsiella pneumoniae [16])
8 mg/L: MIC (Acinetobacter baumannii [6]) | MBC (Pseudomonas aeruginosa [11]) | MIC (Acinetobacter baumannii [15]) | MIC (Acinetobacter baumannii [31])
1 mg/L: MBC (Klebsiella pneumoniae [3]) | MIC (Klebsiella aerogenes [7]) | MIC (Pseudomonas aeruginosa [20]) | MIC (Klebsiella pneumoniae [24]) | MIC (Klebsiella pneumoniae [32]) | MIC (Escherichia coli [36]) | MIC (Pseudomonas aeruginosa [46])
0.25 mg/L: MIC (Klebsiella pneumoniae [1]) | MIC (Escherichia coli [8]) | MIC (Pseudomonas aeruginosa [27]) | MIC (Escherichia coli [43])
64 mg/L: MIC (Pseudomonas aeruginosa [45])
> 64 mg/L: MIC (Klebsiella pneumoniae [12]) | MIC (Klebsiella pneumoniae [23]) | MIC (Acinetobacter baumannii [26]) | MIC (Escherichia coli [40]) | MIC (Enterobacter cloacae)
0.125 mg/L: MIC (Klebsiella pneumoniae [28]) | MBC (Klebsiella pneumoniae [41])
16 mg/L: MBC (Pseudomonas aeruginosa [17]) | MIC (Acinetobacter baumannii [18]) | MIC (Acinetobacter baumannii [21]) | MBC (Acinetobacter baumannii [29]) | MBC (Acinetobacter baumannii [33]) | MBC (Klebsiella pneumoniae [34]) | MBC (Pseudomonas aeruginosa [37])

CC(C)(O/N=C(\C(=O)N[C@@H]1C(=O)N2C(C(=O)[O-])=C(C[n+]3ccccc3)CS[C@H]12)c1csc(N)n1)C(=O)O [CEFTAZIDIME]
> 8 mg/L: MBC (Klebsiella pneumoniae [9])
2 mg/L: MIC (Klebsiella pneumoniae [24]) | MIC (Pseudomonas aeruginosa [25]) | MIC (Klebsiella pneumoniae [30]) | MIC (Klebsiella pneumoniae [32]) | MBC (Escherichia coli [38])
8 mg/L: MIC (Acinetobacter baumannii [6]) | MBC (Klebsiella pneumoniae [10]) | MBC (Pseudomonas aeruginosa [13]) | MIC (Acinetobacter baumannii [15]) | MIC (Acinetobacter baumannii [18]) | MIC (Acinetobacter baumannii [21]) | MBC (Acinetobacter baumannii [29]) | MBC (Acinetobacter baumannii [33])
16 mg/L: MIC (Klebsiella pneumoniae [16]) | MIC (Acinetobacter baumannii [31])
32 mg/L: MIC (Escherichia coli [40])
> 64 mg/L: MIC (Klebsiella pneumoniae [12]) | MIC (Klebsiella pneumoniae [23]) | MIC (Acinetobacter baumannii [26])
64 mg/L: MIC (Enterobacter cloacae) | MIC (Pseudomonas aeruginosa [45])
4 mg/L: MBC (Pseudomonas aeruginosa [11]) | MBC (Klebsiella pneumoniae [34])
0.25 mg/L: MBC (Klebsiella pneumoniae [3]) | MBC (Escherichia coli [19]) | MBC (Pseudomonas aeruginosa [42])
0.125 mg/L: MIC (Pseudomonas aeruginosa [2]) | MIC (Pseudomonas aeruginosa [27]) | MIC (Klebsiella pneumoniae [28])
1 mg/L: MIC (Pseudomonas aeruginosa [4]) | MIC (Klebsiella pneumoniae [5]) | MIC (Escherichia coli [14]) | MIC (Klebsiella aerogenes [22]) | MBC (Pseudomonas aeruginosa [37]) | MBC (Klebsiella pneumoniae [41])
0.06 mg/L: MIC (Escherichia coli [8])
0.5 mg/L: MIC (Klebsiella pneumoniae [1]) | MIC (Klebsiella aerogenes [7]) | MBC (Pseudomonas aeruginosa [17]) | MIC (Pseudomonas aeruginosa [20]) | MBC (Pseudomonas aeruginosa [35]) | MIC (Pseudomonas aeruginosa [39]) | MIC (Pseudomonas aeruginosa [46])

C[C@@H](O)[C@H]1C(=O)N2C(C(=O)O)=C(S[C@@H]3CN[C@H](C(=O)N(C)C)C3)[C@H](C)[C@H]12 [MEROPENEM]
0.25 mg/L: MIC (Pseudomonas aeruginosa [44])
< 0.03 mg/L: MIC (Escherichia coli [36]) | MIC (Escherichia coli [43])
